In PMC9014415, “Repositioning of a Diaminothiazole Series Confirmed to Target the Cyclin-Dependent Kinase CRK12 for Use in the Treatment of African Animal Trypanosomiasis” (Journal of Medicinal Chemistry, 2022):

Legend:
T. vivax (STIB719) = assay: Cattle efficacy for compound 2, intravenous infusion (Clinvet), T. vivax; format: in vivo, Trypanosoma vivax; details: Friesian-Holstein cattle infected with T. vivax; n = 4; at 100 days
Method: Unfortunately, an injection site tolerability issue arose during the pharmacokinetic study in cattle that was not evident in rats. […] To circumvent these issues, compound 2 was assessed in an in vivo proof of concept efficacy study in Friesian-Holstein cattle using an IV infusion regimen. The study was conducted in four animals infected with T. congolense (KONT2/133) and four animals infected with T. vivax (STIB719). Three additional animals infected with each strain formed the vehicle control groups and were dosed IV once daily with saline. Pharmacokinetic modeling was used to define a dosing regimen that mimics the blood concentration–time profile that delivered cure in mice (10 mg/kg SC once daily for 2 days, with a Ctrough of >20 ng/mL (>38 nM)). A continuous infusion over 36 h and two loading doses 24 h apart were required. […]
(§1) Response to treatment was determined by monitoring parasitaemia twice a week until day 21. […]
(§2) In each of the cattle efficacy studies (3.3, 3.4 and 3.5), efficacy was assessed primarily on absence of recrudescence of parasitaemia for 100 days after treatment administration together with improvements in Packed Cell Volume, body weight and clinical signs of infected compared with uninfected animals. […]

in vivo = details: NMRI, mouse
Method: 2.4 Protein plasma binding
This was determined as previously described.6
2.5 PK and maximum tolerated dose - mouse
PK studies in female NMRI mice (Figure S1): Test compounds 1, 2 and 10 were dosed SC at 10 mg free base/kg (dose volume 10 mL/kg; dose vehicle: 5% (v/v) DMSO, 40% polyethylene glycol 400 (PEG400) and 55% deionized water) to female NMRI mice (n = 3). Blood samples (10 μL) were taken from each mouse at 0.08, 0.25, 0.5, 1, 2, 4, 6, 8 h post dose (24 h post dose for compounds 2 and 10 only) and mixed with two volumes of deionized water (20 μL). Alternatively, compound 2 was delivered for 48 h via SC implanted ALZET osmotic pumps (10, 25 and 50 mg free base/mL, vehicle: 50% DMSO and 50% deionized water) to the female NMRI mouse (n = 3). Blood samples (10 μL) from each mouse were taken at 1, 3, 6, 24, 30 and 48 h post-dose and mixed with two volumes of deionized water (20 μL). […]
as §1, §2

Question: Which “Efficacy in cattle, IV bolus and infusion” value (T. vivax (STIB719)) does the source give for `CC(C)CS(=O)(=O)N[C@H]1CC[C@H](Nc2nc(N)c(C(=O)c3c(F)cc(CN(C)C)cc3F)s2)CC1` [Compound 2, N-(trans)-[4-[[4-Amino-5-[4-(dimethylaminomethyl)-2,6-difluoro-benzoyl]thiazol-2-yl]amino]cyclohexyl]-2-methyl-propane-1-sulfonamide] here?
Answer: Its value is “cured”.

Question: What about the Cmax (in vivo) of the same compound?
Answer: Its Cmax is 34 to 65 ng/mL.
